The values that follow come from ChEMBL document CHEMBL3880438, “Identification of modulators of GPR41 or GPR42 activity” (2001).

SMILES strings stand for the structures. Active and inactive are the calls of the source. The calls are words filed in the database; no cut-off is given here.

Experiment [1] deals with T1, Free fatty acid receptor 3 (Rattus norvegicus) (UniProt B2GV46).
T1 sequence (whole entry): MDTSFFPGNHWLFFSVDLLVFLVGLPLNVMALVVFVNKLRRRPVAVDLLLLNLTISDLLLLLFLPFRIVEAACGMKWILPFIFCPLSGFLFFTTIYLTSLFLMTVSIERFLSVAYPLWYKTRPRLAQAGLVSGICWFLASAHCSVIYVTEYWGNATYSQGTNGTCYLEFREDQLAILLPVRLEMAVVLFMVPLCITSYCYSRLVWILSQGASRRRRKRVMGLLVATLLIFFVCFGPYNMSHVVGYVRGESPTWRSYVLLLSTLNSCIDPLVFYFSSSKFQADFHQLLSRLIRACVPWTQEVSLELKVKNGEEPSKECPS
Put plainly: Agonist activity at GPR41 in rat primary adipocytes assessed as inhibition of isoprenaline-induced lipolysis by measuring glycerol level after 2 hrs. It counts as cell-based.

The target of experiment [2] is T1, Free fatty acid receptor 3 (Rattus norvegicus). Put plainly: Agonist activity at rat GPR41 expressed in HEK293T cell membranes co-expressing Go1alpha protein assessed as stimulation of [35S]GTPgammaS binding at 0.1 microM to 0.1 M incubated for 30 mins by scintillation counting method. It counts as functional. Particulars: HEK-293T.
The target in experiment [3] is T2, Free fatty acid receptor 3 (Homo sapiens) (UniProt O14843).
T2 sequence (whole entry): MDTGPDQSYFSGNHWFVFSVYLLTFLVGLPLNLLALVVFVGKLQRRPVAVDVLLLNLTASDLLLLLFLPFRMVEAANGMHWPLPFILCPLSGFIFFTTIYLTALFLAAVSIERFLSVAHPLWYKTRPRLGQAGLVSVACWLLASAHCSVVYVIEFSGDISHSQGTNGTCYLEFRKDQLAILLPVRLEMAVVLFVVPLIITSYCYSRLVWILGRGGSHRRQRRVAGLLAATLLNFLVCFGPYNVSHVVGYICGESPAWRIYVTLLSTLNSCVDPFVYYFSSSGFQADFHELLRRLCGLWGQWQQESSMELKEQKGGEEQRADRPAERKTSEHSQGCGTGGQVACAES
Put plainly: Agonist activity at human GPR41 expressed in HEK293T cell membranes co-expressing Go1alpha protein assessed as stimulation of [35S]GTPgammaS binding at 0.1 microM to 0.1 M incubated for 30 mins by scintillation counting method. It counts as functional. As to conditions: HEK-293T.

The target of experiment [4] is T2, Free fatty acid receptor 3 (Homo sapiens). Put plainly: Agonist activity at human GPR41 expressed in HEK293T cell membranes co-expressing Go1lpha protein assessed as stimulation of [35S]GTPgammaS binding at 1 microM to 0.1 M incubated for 30 mins by scintillation counting method. It counts as functional. Particulars: HEK-293T. For orientation: Binding of GTPγS marks nucleotide exchange on a G protein.

Experiment [5] concerns the target T1, Free fatty acid receptor 3 (Rattus norvegicus). Put plainly: Agonist activity at rat GPR41 expressed in Saccharomyces cerevisiae MMY11 co-expressing chimeric Gpa1/Ga0 at 0.5 mM to 50 mM incubated for 48 hrs by induction of FUSl-lacZ and FUS1-HIS3 reporter gene induction based pheromone response pathway coupled assay.
The target is the same in experiment [6]. Put plainly: Agonist activity at rat GPR41 expressed in Saccharomyces cerevisiae MMY11 co-expressing chimeric Gpa1/Galpha13 at 0.5 mM to 50 mM incubated for 48 hrs by induction of FUSl-lacZ and FUS1-HIS3 reporter gene induction based pheromone response pathway coupled assay.
For experiment [7] the target is unchanged. Put plainly: Agonist activity at rat GPR41 expressed in Saccharomyces cerevisiae MMY11 co-expressing chimeric Gpa1/Galpha12 at 0.5 mM to 50 mM incubated for 48 hrs by induction of FUSl-lacZ and FUS1-HIS3 reporter gene induction based pheromone response pathway coupled assay.

As to `CC(=O)[O-].N.O=CO.[Na+]`, the Activity entry in experiment [1] is “Dose-dependent effect”. Moreover, the outcome in experiment [2] and in experiment [3] was Active.
As to `CC(=O)[O-].[Na+]`, the Activity entry in experiment [1] is “Dose-dependent effect”.
On to `CCCC(=O)[O-].CCCCC(=O)[O-].[K+].[Na+]`, for which the result in experiment [3] was Active.
Regarding `CCCCC(=O)[O-].[K+]`, the result in experiment [1] was Active.
As to `CC(O)CC(=O)O` (racemic), the outcome in experiment [4] was Active.
For `CCC(=O)[O-].[Na+]` [SODIUM PROPIONATE], the Activity result in experiment [1] was “Dose-dependent effect”. Further, the result in experiment [2], in experiment [5], in experiment [6], in experiment [3] and in experiment [7] was Active.
